Experimental data from paper PMC8145107 (Pharmaceutics, 2021).
Where two headings read alike, the source gives them in different places.

How the values were obtained:
[1] = system: Salmonella typhimurium TA100; conditions: for Ames test outcome versus vehicle control: TA100, 48 h, J2 40 μg/plate, NA49 200 μg/plate
Procedure: (§1) To perform the Ames test of J2 and NA49, the number of revertant colonies was counted on each compound-treated plate at the maximum concentration at which the compound was soluble and nontoxic to the S. typhimurium tester strains (Supplementary Material S1). The ratio of the number of revertant colonies in the treated plate to colonies in the vehicle plate. […] For the hERG K^+ channel binding assay of J2 and NA49, the inhibitory activity against the hERG K^+ channel and its ligand was measured using a red fluorescent hERG channel ligand tracer. The final activity was assessed as a decrease in the degree of fluorescence polarization. […]
(§2) The test was conducted with maximum concentration at which the compound was
(§3) soluble and nontoxic to the S. typhimurium tester strains. #Factor = No. of revertant colonies
(§4) of treated plate colonies of vehicle control plate. […]

[2] = system: Salmonella typhimurium TA98; conditions: for Ames test outcome versus vehicle control: TA98, 48 h, J2 40 μg/plate, NA49 200 μg/plate
Procedure: as §1, §2, §3, §4

[3] = Liver microsomal phase I stability assay (rat); assay type: in vitro ADME; conditions: rat liver microsomes
[4] = biological target: CYP2C9 (Homo sapiens, UniProt P11712); experiment: CYP450 enzyme inhibition, 2C9; assay type: in vitro ADME; conditions: compound 0.05~50 μM; read-out: IC50 against CYP450 isotype 2C9
Procedure: Permeability was evaluated with a parallel artificial membrane permeability (PAMPA) assay using an artificially generated lipid-infused membrane.

[5] = biological target: CYP450 2D6 (Homo sapiens, UniProt P10635); experiment: CYP450 enzyme inhibition, 2D6; assay type: in vitro ADME; conditions: compound 0.05~50 μM; read-out: IC50 against CYP450 isotype 2D6
[6] = Pharmacokinetic study after IV injection in rats; assay type: in vivo; conditions: male, Sprague-Dawley, plasma, rat
Description: Male Sprague–Dawley rats (7-week-old) and male Institute of Cancer Research (ICR) mice (5-week-old) were purchased from Orient Bio (Seongnam, Korea) and Samtako Bio (Osan, Korea), respectively. The experimental animals were housed under conventional conditions and fasted overnight before surgery for catheterization. All procedures for animal experiments were in accordance with the guidelines by the Ewha Woman’s University Institutional Animal Care and Use Committee (IACUC, 15-049 and 16-062), Korea.
The HPLC system used for this study was an Agilent HP1100 equipped with a quaternary pump with degasser, a variable wavelength detector, a thermostatted auto-sampler, and an HPLC 2D Agilent ChemStation software. A capcell-pak C18 MG120 column (3.0 × 250 mm, 5 µm, Shiseido, Tokyo, Japan) was used at 25 °C. The mobile phase was composed of water (0.1% trifluoroacetic acid) and acetonitrile (0.1% trifluoroacetic acid) (57:43 (v/v) for J2 and 50:50 (v/v) for NA49, respectively), filtered through a 0.45 μm Millipore filter and degassed prior to use, and the flow rate was 0.5 mL/min. UV detection was performed at 248 nm for J2 and at 246 nm for NA49, and the injection volume was 40 µL for both compounds. […] The accuracy (%) was calculated by dividing the mean of the measured drug concentration by the theoretical drug concentration. […] After extraction, the supernatant was transferred to a clean insert for HPLC analysis.
J2 and NA49 were dissolved in 10% DMAc and 10% Tween® 80 solution in saline to a concentration of 2.5 mg/mL for pharmacokinetic studies. The common carotid artery of the rat was catheterized under anesthesia using isoflurane the day before administration of J2 and NA49 [27]. Rats were divided into four groups. J2 and NA49 were administered to rats by intravenous (IV) injection at doses of 2 mg/kg and 10 mg/kg, respectively. Blood samples (0.2~0.25 mL) were collected at 0, 0.033, 0.083, 0.167, 0.33, 0.67, 1, 2, 3, 5, 7, 9, and 24 h following IV administration. The plasma samples obtained after centrifugation of the blood samples were stored at −20°C until HPLC analysis. The following pharmacokinetic parameters of J2 and NA49 were estimated by non-compartmental analysis using WinNonlin® Professional version 5.2 software (Pharsight Corporation, Mountain View, CA, USA): Initial drug concentration (C0), area under the plasma concentration–time curve from 0 h to the final sampling time point (AUC0-last), elimination half-life (t1/2), apparent volume of distribution (Vd), and total clearance (Cl).

[7] = Stability tests of the analytes (HPLC method validation, rat plasma); assay type: physicochemical; conditions: for Stability of standard stock solution: 1 mg/mL
Procedure: pounds. The analytical method of the analytes was validated by FDA Bioanalytical Method Validation Guidance for Industry. The chromatogram of the rat plasma spiked with J2 and SW15 (IS) or NA49 and NA27 was compared with that of the blank rat plasma in order to confirm the specificity of the analytical method. The calibration curves of J2 and NA49 in rat plasma was built for nine concentration levels in the range of 0.025–10 µg/mL. The sensitivity of detection was evaluated by the lower limit of quantification […]
than the baseline noise. The intra-day precision and accuracy were estimated by analyzing five sets of four quality control (QC) samples (0.025, 0.05, 0.5 and 5 µg/mL) in the same day. The inter-day precision and accuracy were evaluated by analyzing a set of four QC samples on five different days. The precision was expressed as a coefficient of variation (CV%) by calculating the ratio of the standard deviation to the mean measured drug con-centration. The accuracy (%) was calculated by dividing a mean measured drug concen-tration by the theoretical drug concentration. The recovery of the analytes from the plasma samples was evaluated at low and high concentrations (0.05 and 5 µg/mL, respectively) by comparing the peak areas of the analytes after extraction to those before extraction. […]
The short-term stability tests were conducted at room temperature for 4 h for J2 and 6 h for […], while the long-term stability tests were performed at −20°C and −70°C for 2 weeks and 4 weeks, respectively. The stability of the analytes following three freeze-thaw cycles, the post-preparative stability and the stock solution stability were also exam-ined. Each blood sample collected from the experimental animals was transferred into an […]

[8] = TA100, with S-9 mix, J2 40, NA49 200, benzo(a)pyrene 2 μg/plate
[9] = TA100, without S-9 mix, J2 40, NA49 200 μg/plate
[10] = TA98, with S-9 mix, J2 40, NA49 200, benzo(a)pyrene 2 μg/plate
[11] = TA98, without S-9 mix, J2 40, NA49 200, positive controls 1-2 μg/plate

CYP450 2D6, sequence (P10635 whole entry): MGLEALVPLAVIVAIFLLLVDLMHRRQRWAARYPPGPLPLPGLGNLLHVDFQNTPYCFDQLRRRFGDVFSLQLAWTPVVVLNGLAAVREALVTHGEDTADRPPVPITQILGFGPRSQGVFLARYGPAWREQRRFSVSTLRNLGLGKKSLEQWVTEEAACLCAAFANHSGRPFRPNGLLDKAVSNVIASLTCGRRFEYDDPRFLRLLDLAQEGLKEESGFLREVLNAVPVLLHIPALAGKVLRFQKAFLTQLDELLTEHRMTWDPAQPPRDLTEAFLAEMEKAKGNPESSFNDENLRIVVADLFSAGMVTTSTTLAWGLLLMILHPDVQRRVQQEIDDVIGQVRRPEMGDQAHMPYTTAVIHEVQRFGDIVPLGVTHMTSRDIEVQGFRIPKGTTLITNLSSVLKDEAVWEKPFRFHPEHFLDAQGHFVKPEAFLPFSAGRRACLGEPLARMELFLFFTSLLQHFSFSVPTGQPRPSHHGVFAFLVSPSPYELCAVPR
CYP2C9, sequence (P11712 whole entry): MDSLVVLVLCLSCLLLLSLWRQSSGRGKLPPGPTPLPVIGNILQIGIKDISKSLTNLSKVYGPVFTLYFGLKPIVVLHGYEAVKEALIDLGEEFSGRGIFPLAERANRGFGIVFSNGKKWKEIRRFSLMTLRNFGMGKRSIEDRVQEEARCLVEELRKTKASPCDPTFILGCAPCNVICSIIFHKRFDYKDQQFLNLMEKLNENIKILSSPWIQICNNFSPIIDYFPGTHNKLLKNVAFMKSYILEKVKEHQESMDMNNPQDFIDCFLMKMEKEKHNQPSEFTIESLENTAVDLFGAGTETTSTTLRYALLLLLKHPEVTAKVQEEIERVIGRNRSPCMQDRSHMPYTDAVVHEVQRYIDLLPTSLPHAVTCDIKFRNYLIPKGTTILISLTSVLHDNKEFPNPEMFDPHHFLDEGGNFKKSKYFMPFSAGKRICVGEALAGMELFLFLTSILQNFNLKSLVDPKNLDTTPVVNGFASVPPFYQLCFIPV

Row | Structure (SMILES) | Factor (revertant colonies of treated plate/vehicle control plate) [1, 8] | Revertant colonies/plate (Mean ± S.D.) [1, 8] [colonies/plate] | Factor (revertant colonies of treated plate/vehicle control plate) [1, 9] | Revertant colonies/plate (Mean ± S.D.) [1, 9] [colonies/plate] | Ames test outcome versus vehicle control [1] | Factor (revertant colonies of treated plate/vehicle control plate) [2, 10] | Revertant colonies/plate (Mean ± S.D.) [2, 10] [colonies/plate] | Factor (revertant colonies of treated plate/vehicle control plate) [2, 11] | Revertant colonies/plate (Mean ± S.D.) [2, 11] [colonies/plate] | Ames test outcome versus vehicle control [2] | In vitro Metabolic Stability (% of remaining after 30 min) [3] [%] | IC50 [4] [µM] | IC50 [5] [µM] | AUC(0-t) ([6]; 2 mg/kg) [ng·h/mL] | C0 ([6]; 2 mg/kg) [ng/mL] | Vd ([6]; 2 mg/kg) [L] | clearance ([6]; 2 mg/kg) [mL/min] | half-life ([6]; 2 mg/kg) [min] | AUC(0-t) ([6]; 10 mg/kg) [ng·h/mL] | C0 ([6]; 10 mg/kg) [ng/mL] | further results
1 | Cc1cc(=O)c2c(O)cc(OCC3CS3)cc2o1 (stereo not shown) [J2] | 3.1 | 418 ± 9 | 6.0 | 643 ± 70 | increased bacterial reverse mutation | 3.8 | 65 ± 2 | 3.6 | 57 ± 7 | increased bacterial reverse mutation | 2.6 ± 0.45 | > 50 | > 50 | 180 ± 50 | 1640 ± 730 | 0.77 ± 0.27 | 46.5 | 11.4 ± 4.2 | 1480 ± 750 | 6960 ± 2600 | Vd ([6]; 10 mg/kg): 1.05 ± 0.72 L; clearance ([6]; 10 mg/kg): 31.7 mL/min; half-life ([6]; 10 mg/kg): 27 ± 18 min; Stability of post-preparative sample [7]: 102.2–103.4%; Stability of standard stock solution [7]: 113.2%; Stability after three freeze–thaw cycles, mean ([7]; low concentration (0.05 µg/mL)): 116.6%; Stability at −70°C for 4 weeks, mean ([7]; low concentration (0.05 µg/mL)): 115.2%
2 | COc1ccc(-c2coc3cc(OCC4CS4)ccc3c2=O)c(OC)c1 (stereo not shown) [NA49] | 1.9 | 262 ± 11 | 2.0 | 229 ± 2 | no significant increase | 1.3 | 22 ± 2 | 1.2 | 19 ± 3 | no significant increase | 5.0 ± 1.33 | 19.2 | > 50 | 210 ± 70 | 720 ± 400 | 3.35 ± 1.69 | 30.7 | 84 ± 50.4 | 1240 ± 590 | 4960 ± 1120 | Vd ([6]; 10 mg/kg): 4.13 ± 1.87 L; clearance ([6]; 10 mg/kg): 30 mL/min; half-life ([6]; 10 mg/kg): 93 ± 28.8 min; Stability of post-preparative sample [7]: 96.9–102.4%; Stability of standard stock solution [7]: 98.7%
